# Patent publication US4244954A, “Acridine compounds and methods of combatting viruses with them” (Sterling Drug Inc., priority 1978, dated 1981)
# Read-outs that look alike come from different tables or passages of the source.
# What was measured:
# [1] = tested on: herpes simplex virus type 2; test: in vitro antiviral activity, serial dilution, herpes simplex virus type 2; format: cell-based; settings: Human alphaherpesvirus 2
# Procedure: (§1) Antiviral activity was determined in vitro by the conventional serial dilution technique against selected virus species such as herpes simplex virus types 1 and 2. In vivo antiviral activity was determined against herpes virus in the mouse genital model and the guinea pig skin infection model.
# herpes simplex virus 1 = test: in vitro antiviral activity, serial dilution, herpes simplex virus type 1; format: cell-based; settings: Human alphaherpesvirus 1, read-out: concentration at which active against herpes simplex virus 1
# Procedure: as §1
# herpes simplex type 2 = test: in vivo antiviral activity, mouse genital model; design: species or system mice
# Procedure: as §1
# [2] = tested on: six herpes simplex strains; test: plaque count reduction, six herpes simplex strains; format: cell-based, herpes simplex virus; settings: at 4-10 mg./ml.
# [3] = tested on: herpes simplex virus type 1; test: in vivo antiviral activity, guinea pig skin infection model; settings: after 48 hours of topical treatment
# Procedure: as §1
# [4] = tested on: influenza virus A2 /Jap 170; test: influenza virus titers in ferret nasal washings; format: in vivo; settings: 100-200 mg/kg/day
# Trypanosoma brucei [5] = format: in vivo, mice; settings: for curative effect against T. brucei infection: mice, oral
# Procedure: (§2) Trypanosomacidal activity was determined against Trypanosoma brucei in mice. In a curative test medication was given (orally or parenterally) as a single dose or daily in equally subdivided doses eight hours apart for four days beginning 72 hours after intraperitoneal infection. In a prophylactic-suppressive test the total daily medication was given as a single treatment one day prior to infection, and thereafter for three consecutive days the total daily medications were administered as equally subdivided doses eight hours apart. The infection was uniformly fatal in five to six days in the absence of therapy. Chemotherapeutic effectiveness was based on extension of survival time. Tests were considered terminated 28 days after infection.
# Trypanosoma brucei [6] = test: prophylactic-suppressive test against Trypanosoma brucei infection in mice; format: in vivo; settings: oral, 50 mg per kg per day
# Procedure: as §2
# Endameba criceti = test: amebicidal activity in infected hamsters; format: in vivo; settings: Mesocricetus auratus, 72 h, oral, read-out: dose at which active orally against Endameba criceti in hamsters
# Procedure: Amebicidal activity was determined by oral administration of the test compound orally to hamsters infected with Endameba criceti and the amount of drug necessary to clear the animals of infection in three days was determined.
# S. aureus = test: in vitro antimicrobial activity, serial dilution, S. aureus; format: cell-based; settings: Staphylococcus aureus, read-out: minimum inhibitory concentration (MIC), bacteriostatic activity against S. aureus
# Procedure: (§3) The antimicrobial activity of the compounds was determined in vitro by the conventional serial dilution technique against several species of bacteria and fungi, e.g. S. aureus, S. pyogenes, C. albicans, T. mentagrophytes.
# S. pyogenes = test: in vitro antimicrobial activity, serial dilution, S. pyogenes; format: cell-based; settings: Streptococcus pyogenes, read-out: minimum inhibitory concentration (MIC), bacteriostatic activity against S. pyogenes
# Procedure: as §3
# C. albicans = test: in vitro antimicrobial activity, serial dilution, C. albicans; format: cell-based; settings: Candida albicans, read-out: MIC, fungistatic activity against C. albicans
# Procedure: as §3
# T. mentagrophytes = test: in vitro antimicrobial activity, serial dilution, T. mentagrophytes; format: cell-based; settings: Trichophyton mentagrophytes, read-out: MIC, fungistatic activity against T. mentagrophytes
# Procedure: as §3
# [7] = read-out: concentration at which active in vitro against herpes simplex virus type 2
# [8] = in vitro, read-out: concentration at which active against herpes simplex virus 2
# [9] = concentration at which active, read-out: antiviral activity against herpes type 2
structure (smiles),measurement,setting,value
"CN(C)CCOc1ccc2c(c1)c(=O)c1ccccc1n2C [Example 1, 2-(2-Dimethylaminoethoxy)-10-methyl-9(10H)-acridinone]",minimal effective concentration,[1]; [7],3 to 6 µg/mL
"Cn1c2ccccc2c(=O)c2cc(OCCN3CCCC3)ccc21 [Example 7, 2-[2-(1-Pyrrolidyl)ethoxy]-10-methyl-9(10H)-acridinone]",minimal effective concentration,herpes simplex virus 1,6 µg/mL
same,minimal effective concentration,[1]; [8],6 µg/mL
same,effect against herpes virus 2 genital infection in mice,"herpes simplex type 2; mice, genital infection",effective
"Cn1c2ccccc2c(=O)c2cc(OCCN3CCOCC3)ccc21 [Example 8, 2-[2-(4-Morpholinyl)ethoxy]-10-methyl-9(10H)-acridinone]",minimal effective concentration,herpes simplex virus 1,25 µg/mL
same,minimal effective concentration,[1]; [8],25 µg/mL
"CN1CCN(CCOc2ccc3c(c2)c(=O)c2ccccc2n3C)CC1 [Example 9, 2-[2-(4-Methyl-1-piperazinyl)ethoxy]-10-methyl-9(10H)-acridinone]",minimal effective concentration,herpes simplex virus 1,25 µg/mL
same,minimal effective concentration,[1]; [8],25 µg/mL
"Cn1c2ccccc2c(=O)c2cc(OCCN3CCCCC3)ccc21 [Example 10, 2-[2-(1-Piperidyl)ethoxy]-10-methyl-9(10H)-acridinone]",minimal effective concentration,herpes simplex virus 1,6 µg/mL
"CCn1c2ccccc2c(=O)c2cc(OCCN3CCCC3)ccc21 [Example 11, 2-[2-(1-Pyrrolidyl)ethoxy]-10-ethyl-9(10H)-acridinone]",minimal effective concentration,herpes simplex virus 1,25 µg/mL
same,minimal effective concentration,[1]; [8],25 µg/mL
"Cn1c2ccccc2c(=O)c2cccc(OCCN3CCCC3)c21 [Example 13, 4-[2-(1-Pyrrolidyl)ethoxy]-10-methyl-9(10H)-acridinone]",minimal effective concentration,[1]; [8],12 µg/mL
"Cn1c2ccccc2c(=O)c2cccc(OCCN3CCCCC3)c21 [Example 15, 4-[2-(1-Piperidyl)ethoxy]-10-methyl-9(10H)-acridinone]",minimal effective concentration,[1]; [8],12 µg/mL
"Cn1c2ccccc2c(=O)c2cc(OCCCCN3CCCC3)ccc21 [Example 16, 2-[4-(1-Pyrrolidyl)butoxy]-10-methyl-9(10H)-acridinone]",minimal effective concentration,herpes simplex virus 1,6 µg/mL
same,minimal effective concentration,[1]; [8],6 µg/mL
"CN(C)CCOc1cccc2c1c(=O)c1ccccc1n2C [Example 27, 1-(2-Dimethylaminoethoxy)-10-methyl-9(10H)-acridinone]",minimal effective concentration,herpes simplex virus 1,6 µg/mL
same,minimal effective concentration,[1]; [8],6 µg/mL
same,survival in mice with genital herpes simplex type 2 infection,herpes simplex type 2; concentrations ranging from 2.5 to 10%,50-90%
same,reduction of the plaque counts of six herpes simplex strains,[2],at least 50%
same,reduction of virus titer of herpes simplex virus type 1 in guinea pig skin infection,[3],more than 99%
same,reduction in influenza virus A2 /Jap 170 titers in ferret nasal washings,[4],significant reduction
"Cn1c2ccccc2c(=O)c2c(OCCN3CCCCC3)cccc21 [Example 33, 1-[2-(1-Piperidyl)ethoxy]-10-methyl-9(10H)-acridinone]",minimal effective concentration,herpes simplex virus 1,6 µg/mL
"CN1C2CCCC1CC(Oc1cccc3c1c(=O)c1ccccc1n3C)C2 (stereo not drawn) [Example 34, exo-1-(9-Methylgranatanin-3-yloxy)-10-methyl-9(10H)-acridinone]",minimal effective concentration,herpes simplex virus 1,25 µg/mL
same,minimal effective concentration,[1]; [8],25 µg/mL
"CN(C)CCOc1ccc2c(c1)C(O)(c1ccccc1)c1ccccc1N2C (stereo not drawn) [Example 37, 2-(2-Dimethylaminoethoxy)-9,10-dihydro-10-methyl-9-phenyl-9-acridinol]","effect against T. brucei infection, intramuscular","Trypanosoma brucei [5]; intramuscularly, single dose of 200 mg/kg three days after infection",completely effective
same,"effect against T. brucei infection, intraperitoneal","Trypanosoma brucei [5]; intraperitoneally, single dose of 200 mg/kg three days after infection",completely effective
same,curative effect against T. brucei infection,Trypanosoma brucei [5]; 25 mg/kg/day×4,completely effective
same,"effect against T. brucei infection, subcutaneous","Trypanosoma brucei [5]; subcutaneously, single dose of 200 mg/kg three days after infection",completely effective
same,prophylactic effect against T. brucei infection,Trypanosoma brucei [6],completely effective
"CCN(CC)CCOc1ccc2c(c1)C(O)(c1ccccc1)c1ccccc1N2C (stereo not drawn) [Example 38, 2-(2-Diethylaminoethoxy)-9,10-dihydro-10-methyl-9-phenyl-9-acridinol]",curative effect against T. brucei infection,Trypanosoma brucei [5]; 50 mg/kg/day×4,completely effective
"COc1ccc(C2(O)c3ccccc3N(C)c3ccc(OCCN(C)C)cc32)cc1 (stereo not drawn) [Example 65, 2-(2-Dimethylaminoethoxy)-9,10-dihydro-9-(4-methoxyphenyl)-10-methyl-9-acridinol]",curative effect against T. brucei infection,Trypanosoma brucei [5]; 200 mg/kg/day×4,completely effective
"CN(C)CCOc1ccc2c(c1)c(-c1ccccc1)c1ccccc1[n+]2C.Cl.[Cl-] [Example 68, 2-(2-Dimethylaminoethoxy)-10-methyl-9-phenylacridinium chloride hydrochloride]",curative effect against T. brucei infection,Trypanosoma brucei [5]; 25 mg/kg/day×4,completely effective
same,toxicity upon parenteral administration,"Trypanosoma brucei [5]; mouse, in vivo",toxic
same,"curative effect against T. brucei infection, parenteral","Trypanosoma brucei [5]; parenteral, 50 mg/kg dose level",some curative effect
"CN(C)CCOc1ccc2c(c1)c(Cc1ccccc1)c1ccccc1[n+]2C.Cl.[Cl-] [Example 78, 2-(2-Dimethylaminoethoxy)-10-methyl-9-benzylacridinium chloride hydrochloride]",curative effect against T. brucei infection,Trypanosoma brucei [5]; 100 mg/kg/day×4,completely effective
same,minimal effective dose,Endameba criceti,100 mg/kg
"CN(C)CCOc1ccc2c(c1)c(Cc1ccc(F)cc1)c1ccccc1[n+]2C.Cl.[Cl-] [Example 79, 2-(2-Dimethylaminoethoxy)-10-methyl-9-(4-fluorobenzyl)acridinium chloride hydrochloride]",curative effect against T. brucei infection,Trypanosoma brucei [5]; 200 mg/kg/day×4,completely effective
same,minimal effective dose,Endameba criceti,100 mg/kg
"Cc1ccc(Cc2c3ccccc3[n+](C)c3ccc(OCCN(C)C)cc23)cc1.Cl.[Cl-] [Example 80, 2-(2-Dimethylaminoethoxy)-10-methyl-9-(4-methylbenzyl)acridinium chloride hydrochloride]",curative effect against T. brucei infection,Trypanosoma brucei [5]; 200 mg/kg/day×4,ineffective
same,MIC,S. aureus,15.6 µg/mL
same,MIC,S. pyogenes,7.8 µg/mL
"CN(C)CCOc1ccc2c(Cc3ccccc3)c3ccccc3[n+](C)c2c1.Cl.[Cl-] [Example 81, 3-(2-Dimethylaminoethoxy)-10-methyl-9-benzylacridinium chloride hydrochloride]",curative effect against T. brucei infection,Trypanosoma brucei [5]; 100 mg/kg/day×4,completely effective
same,MIC,S. aureus; in vitro,31.3 µg/mL
same,MIC,S. pyogenes,31.3 µg/mL
"CN(C)CCCOc1ccc2c(Cc3ccccc3)c3ccccc3[n+](C)c2c1.Cl.[Cl-] [Example 82, 3-(3-Dimethylaminopropoxy)-10-methyl-9-benzylacridinium chloride hydrochloride]",curative effect against T. brucei infection,Trypanosoma brucei [5]; 100 mg/kg/day×4,completely effective
same,MIC,S. aureus; in vitro,31.3 µg/mL
"CN(C)CCOc1ccc2c(c1)c(Cc1ccc(Cl)cc1)c1ccccc1[n+]2C.Cl.[Cl-] [Example 83, 2-(2-Dimethylaminoethoxy)-10-methyl-9-(4-chlorobenzyl)acridinium chloride hydrochloride]",minimal effective concentration,[1]; [9],25 µg/mL
same,curative effect against T. brucei infection,Trypanosoma brucei [5]; 200 mg/kg/day×4,ineffective
same,MIC,S. aureus; in vitro,7.8 µg/mL
"CN(C)CCOc1ccc2c(c1)c(Cc1cccc(F)c1)c1ccccc1[n+]2C.Cl.[Cl-] [Example 84, 2-(2-Dimethylaminoethoxy)-10-methyl-9-(3-fluorobenzyl)acridinium chloride hydrochloride]",curative effect against T. brucei infection,Trypanosoma brucei [5]; 200 mg/kg/day×4,completely effective
same,MIC,S. aureus; in vitro,15.6 µg/mL
same,MIC,S. pyogenes,15.6 µg/mL
"CCN(CC)CCOc1ccc2c(c1)c(Cc1ccccc1)c1ccccc1[n+]2C.Cl.[Cl-] [Example 85, 2-(2-Diethylaminoethoxy)-10-methyl-9-benzylacridinium chloride hydrochloride]",curative effect against T. brucei infection,Trypanosoma brucei [5]; 100 mg/kg/day×4,completely effective
same,MIC,S. aureus; in vitro,31.3 µg/mL
same,MIC,S. pyogenes,31.3 µg/mL
"CN(C)CCOc1ccc2c(c1)c(Cc1ccccc1)c1ccc(Cl)cc1[n+]2C.Cl.[Cl-] [Example 86, 2-(2-Dimethylaminoethoxy)-6-chloro-10-methyl-9-benzylacridinium chloride hydrochloride]",minimal effective concentration,[1]; [9],12 µg/mL
same,curative effect against T. brucei infection,Trypanosoma brucei [5]; 50 mg/kg/day×4,ineffective
same,toxicity to the animals in the oral curative test,"Trypanosoma brucei [5]; mouse, in vivo, po, 200 mg/kg/day",toxic to the animals
same,MIC,S. pyogenes,7.8 µg/mL
same,MIC,C. albicans,15.6 µg/mL
same,MIC,T. mentagrophytes,31.3 µg/mL
"COc1ccc2c(c1)c(Cc1ccccc1)c1ccc(OCCN(C)C)cc1[n+]2C.Cl.[Cl-] [Example 87, 3-(2-Dimethylaminoethoxy)-7-methoxy-10-methyl-9-benzylacridinium chloride hydrochloride]",minimal effective concentration,[1]; [7],12 µg/mL
same,effect against T. brucei,"Trypanosoma brucei [5]; 200 mg/kg/day×4, route and test type not given",ineffective
